Literature values, collected in patent US20250312247A1, “OXYGEN GENERATING FACE MASKS” (DERMOQ, INC., priority 2018, published 2025).

Conditions: topically applied dissolved oxygen, transcutaneous

For O=O [dissolved oxygen, oxygen], the “depth of penetration through human skin” value is listed as > 700 μm.
